What was measured:
[1] = Dog pharmacokinetics (screening IV/PO or cassette IV); type: in vivo; details: male; dog plasma, mean residence time
Description: Plasma pharmacokinetic parameters for clearance, volume of distribution, half-life, mean residence time (MRT) and oral bioavailability were determined in dogs from oral administration and IV administration studies. 4 male dogs, typically weighing 8-12 kilograms, were fasted overnight prior to dosing. Compounds were prepared for oral and IV dosing by addition to a vehicle, depending on the dose used. For a typical preparation, 1 mg per mL (IV) or 1.5 mg per mL (oral) of test compound was added to vehicle comprised of 20% dimethyl sulfoxide (DMSO), 60% polyethylene glycol 400 (PEG400) and 20% water. IV formulation was administered to 2 dogs via the saphenous or cephalic vein, and oral dosing was administered to 2 dogs via oral gavage. Blood was collected by the cephalic or jugular vein, typically at predose, 2 min, 8 min, 15 min, 30 min, and 1, 2, 4, 6, 8 and 24 hr postdose for IV, and at predose, 15 min, 30 min, and 1, 2, 4, 6, 8, and 24 hr for oral dosing. Samples were collected in K2EDTA tubes, stored on ice. and centrifuged. Plasma was transferred to a micro titer plate and stored at −70° C.until analysis. Plasma samples were extracted using protein precipitation and analyzed by liquid chromatography separation followed by mass spec detection (LCMS/MS), using a standard curve for each compound. Plasma pharmacokinetic parameters were calculated for IV and oral dosing data by non-compartmental methods. Oral bioavailability was determined as the ratio of the dose-normalized plasma area under the curve (AUC) following oral dosing vs. IV dosing.
Plasma pharmacokinetic parameters for clearance, volume of distribution, half-life, and mean residence time (MRT) were determined in dogs from IV cassette administration studies. 2 male dogs, typically weighing 8-12 kilograms, were fasted overnight prior to dosing. Compounds were prepared for IV dosing by addition to a vehicle, depending on the dose used. For a typical preparation, 1 mg per mL (IV) of up to 5 test compounds were added to vehicle comprised of 20% dimethyl sulfoxide (DMSO), 60% polyethylene glycol 400 (PEG400) and 20% water. IV formulation was administered to 2 dogs via the saphenous or cephalic vein. Blood was collected by the cephalic or jugular vein, typically at predose. 2, 8, 15, 30 min, 1, 2, 4, 6, 8 and 24 hr postdose. Samples were collected in K2EDTA tubes, stored on ice, and centrifuged. Plasma was transferred to a micro titer plate and stored at −70° C. until analysis. Plasma samples were extracted using protein precipitation and analyzed by liquid chromatography separation followed by mass spec detection (LCMS/MS), using a standard curve for each compound. Plasma pharmacokinetic parameters were calculated by non-compartmental methods.

[2] = Rat pharmacokinetics (cassette IV or screening IV/PO); type: in vivo; details: male; rat plasma, mean residence time
Description: Plasma pharmacokinetic parameters for clearance, volume of distribution, half-life and mean residence time (MRT) were determined in rats from IV cassette administration studies. 2 male rats typically weighing 225-260 gram, were fasted overnight prior to dosing. Compounds were prepared for IV dosing by addition to a vehicle, depending on the dose used. For a typical preparation, 1 mg per mL (IV) of up to 5 test compounds were added to vehicle comprised of 20% dimethyl sulfoxide (DMSO), 60% polyethylene glycol 400 (PEG400) and 20% water. IV formulation was administered to 2 rats via pre-cannulated jugular vein. Blood was collected by pre-cannulated artery, typically at predose, 2, 8, 15, 30 min. 1, 2, 4, 6, and 8 hr postdose. Samples were collected in K2EDTA tubes, stored on ice, and centrifuged. Plasma was transferred to a micro titer plate and stored at −70° C.until analysis. Plasma samples were extracted using protein precipitation and analyzed by liquid chromatography separation followed by mass spec detection (LCMS/MS), using a standard curve for each compound. Plasma pharmacokinetic parameters were calculated by non-compartmental methods.
Plasma pharmacokinetic parameters for clearance, volume of distribution, half-life, mean residence time (MRT) and oral bioavailability (%F)-were determined in rats from oral administration and IV administration studies. 4 male rats, typically weighing 225-260 gram, were fasted overnight prior to dosing. Compounds were prepared for oral and IV dosing by addition to a vehicle, depending on the dose used. For a typical preparation, 1 mg per mL (IV) or 1.5 mg per mL (oral) of test compound was added to vehicle comprised of 20% dimethyl sulfoxide (DMSO), 60% polyethylene glycol 400 (PEG400) and 20% water. IV formulation was administered to 2 rats via pre-cannulated jugular vein, and oral dosing was administered to 2 rats via oral gavage. Blood was collected by pre-cannulated artery, typically at predose, 2 min, 8 min, 15 min. 30 min, and 1, 2, 4, 6, and 8 hr postdose for IV, and at predose, 15 min, 30 min, and 1, 2, 4, 6, 8 hr for oral dosing. Samples were collected in K2EDTA tubes, stored on ice, and centrifuged. Plasma was transferred to a micro titer plate and stored at −70° C. until analysis. Plasma samples were extracted using protein precipitation and analyzed by liquid chromatography separation followed by mass spec detection (LCMS/MS), using a standard curve for each compound. Plasma pharmacokinetic parameters were calculated for IV and oral dosing data by non-compartmental methods. Oral bioavailability was determined as the ratio of the dose-normalized plasma area under the curve (AUC) following oral dosing vs. IV dosing.

human tissue kallikrein = molecular target: T1, human tissue kallikrein (Homo sapiens, UniProt P06870); experiment: Inhibition of tissue kallikrein enzymatic activity; type: biochemical; details: human tissue kallikrein 5 nM, N-acetyl-KPR-AFC substrate, 25° C., pH 7.4; read-out: tKal IC50
T1 construct: purchased Ray Biotech or Evotec 228-10996
Description: Compounds were assayed with human tissue kallikrein (Ray Biotech, Cat # 228-10996 or Evotec, final concentration 5 nM) in 50 mM HEPES, 150 mM NaCl, 5 mM CaCl2, 0.1% PEG-8000, pH 7.4 at 25° C. in a Corning 3575 non-binding surface microplate. Compounds were tested in 10-point dose titrations starting at 166.67 uM with a 3-fold dilution series. Tissue kallikrein enzymatic activity was determined by measuring the rate of cleavage of N-acetyl-KPR-AFC substrate (Sigma, Cat # C6608, final concentration 100 uM) by continuously monitoring the fluorescence at 400/505 nm using a Tecan Safire plate-reader. The initial reaction rates (0) to 20 minutes) were used to determine percent inhibition. The % Inhibition for each data point was recalculated from the RFU/min data and analyzed using the log(inhibitor) vs. response four parameters equation with the GraphPad Prism software.

T1 sequence (P06870 25-262): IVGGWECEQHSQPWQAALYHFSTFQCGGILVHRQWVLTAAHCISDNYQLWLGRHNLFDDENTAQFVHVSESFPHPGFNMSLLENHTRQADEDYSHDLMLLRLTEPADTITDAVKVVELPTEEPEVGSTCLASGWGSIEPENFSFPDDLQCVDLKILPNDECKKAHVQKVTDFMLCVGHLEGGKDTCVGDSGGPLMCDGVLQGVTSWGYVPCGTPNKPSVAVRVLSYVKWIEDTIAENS

MRT [1]	MRT [2]	IC50 (human tissue kallikrein)	Compound
6.1 h	3.2 h	0.886 µM	CCOC(=O)c1[nH]c2nc1-c1ccc(NC(=O)OC)cc1NC(=O)C(C)(C)CCC[C@@H]2c1ccc(-c2cc(F)ccc2OC(F)F)c[n+]1[O-] [Example 3, (R,Z)-5-(2-(difluoromethoxy)-5-fluorophenyl)-2-(1^5-(ethoxycarbonyl)-2^4-((methoxycarbonyl)amino)-5,5-dimethyl-4-oxo-1^1H-3-aza-1(4,2)-imidazola-2(1,2)-benzenacyclononaphane-9-yl)pyridine 1-oxide]
9.9 h	3.8 h	> 167 µM	CCOC(=O)c1[nH]c2nc1-c1ccc(NC(=O)OC)cc1NC(=O)C(C)(C)CCC[C@@H]2c1ccc(-c2cc(Cl)cnc2OC(F)F)c[n+]1[O-] [Example 4, (R,Z)-5′-chloro-2′-(difluoromethoxy)-6-(1^5-(ethoxycarbonyl)-2^4-((methoxycarbonyl)amino)-5,5-dimethyl-4-oxo-1^1H-3-aza-1(4,2)-imidazola-2(1,2)-benzenacyclononaphane-9-yl)-[3,3′-bipyridine] 1-oxide]
7.2 h	3.7 h	15 µM	CCOC(=O)c1[nH]c2nc1-c1ccc(NC(=O)OC)cc1NC(=O)C(C)(C)CCC[C@@H]2c1ccc(-c2cccc(Cl)c2F)c[n+]1[O-] [Example 5, (R,Z)-5-(3-chloro-2-fluorophenyl)-2-(1^5-(ethoxycarbonyl)-2^4-((methoxycarbonyl)amino)-5,5-dimethyl-4-oxo-1^1H-3-aza-1(4,2)-imidazola-2(1,2)-benzenacyclononaphane-9-yl)pyridine 1-oxide]

More lines, now with the values behind:

Compound	MRT [1]	MRT [2]	IC50 (human tissue kallikrein)
CCOC(=O)c1[nH]c2nc1-c1ccc(NC(=O)OC)cc1NC(=O)C(C)(C)CCC[C@@H]2c1ccc(-c2cc(F)ccc2-n2cc(C(F)(F)F)cn2)c[n+]1[O-] [Example 1, (R,Z)-2-(1^5-(ethoxycarbonyl)-2^4-((methoxycarbonyl)amino)-5,5-dimethyl-4-oxo-1^1H-3-aza-1(4,2)-imidazola-2(1,2)-benzenacyclononaphane-9-yl)-5-(5-fluoro-2-(4-(trifluoromethyl)-1H-pyrazol-1-yl)phenyl)pyridine 1-oxide]	12 h	4 h	> 167 µM
CCOC(=O)c1[nH]c2nc1-c1ccc(NC(=O)OC)cc1NC(=O)C(C)(C)CCC[C@@H]2c1ccc(-c2cc(Cl)ccc2-n2cc(C(F)(F)F)cn2)c[n+]1[O-] [Example 2, (R,Z)-5-(5-chloro-2-(4-(trifluoromethyl)-1H-pyrazol-1-yl)phenyl)-2-(1^5-(ethoxycarbonyl)-2^4-((methoxycarbonyl)amino)-5,5-dimethyl-4-oxo-1^1H-3-aza-1(4,2)-imidazola-2(1,2)-benzenacyclononaphane-9-yl)pyridine 1-oxide]	15 h	3.7 h	> 167 µM
COC(=O)Nc1ccc2c(c1)NC(=O)C(C)(C)CCC[C@H](c1ccc(-c3cc(F)ccc3-n3cc(C(F)(F)F)cn3)c[n+]1[O-])c1nc-2c(C(=O)OC)[nH]1 [Example 6, (R,Z)-5-(5-fluoro-2-(4-(trifluoromethyl)-1H-pyrazol-1-yl)phenyl)-2-(1^5-(methoxycarbonyl)-2^4-((methoxycarbonyl)amino)-5,5-dimethyl-4-oxo-1^1H-3-aza-1(4,2)-imidazola-2(1,2)-benzenacyclononaphane-9-yl)pyridine 1-oxide]	8.9 h	3.1 h	> 167 µM

— patent US12497403B2, “Factor XIa inhibitors” (Merck Sharp & Dohme LLC, priority 2021, dated 2025)
